From US20190292577A1, “COMPOSITIONS AND METHOD FOR THE TREATMENT OF ACNE” (ProdermIQ, Inc., priority 2018, published 2019)

Experiments:
[1] = tested on: P. acnes; experiment: Skin microbiome profiling, benzoyl peroxide versus no benzoyl peroxide; format: in vivo, Propionibacterium acnes; conditions: benzoyl peroxide applied versus no benzoyl peroxide, FIG. 3
Text: (§1) Described herein are findings of a study of individuals comprising preadolescent females with acne, and changes in the microbiomes of the individuals with the use of benzoyl peroxide wash. Flora was taken from different areas of the faces of the individuals and studied for sensitivity to benzoyl peroxide. Inclusion criteria of the study for which results are provided herein include: • 1. Minimum of 6 acne lesions present. • 2. No prior use of prescription acne product. • 3. No prior use of over-the-counter benzoyl peroxide anti-acne agent. • 4. Ages: 7-12 • 5. Sex: Female Exclusion criteria of the study for which results are provided herein include: • 1. Significant active skin conditions on the face other than acne vulgaris (may include atopic dermatitis, psoriasis, or others). • 2. Use of oral or parenteral antibiotics within 3 months prior to the study. Sites from which samples were taken along with abbreviations for each include: • RA or RAL: Retroauricular Behind Ear • CH or CHN: Chin • CK or CKN: Cheek • FH or FHN: Forehead • AN or ANN: Ala Nasal [Outside of Nose] • CO or CON: Comedone In some embodiments, the skin microbiome of an individual subject is evaluated. Individual microbiomes vary greatly across subjects and regions of the skin. […] Samples were taken from locations on the heads of the individuals including behind the ear, chin, cheek, forehead, and outside the nose. […]

[2] = tested on: S. mitis; experiment: as above; format: in vivo; conditions: benzoyl peroxide applied versus no benzoyl peroxide, FIG. 3
Text: as §1

[3] = tested on: skin microbiome; experiment: Site specific and overall effect of benzoyl peroxide on the skin microbiome; format: in vivo, human
Text: as §1

[4] = tested on: C2 P. acnes strain; experiment: P. acnes strain profiling before and after benzoyl peroxide treatment; format: in vivo, Propionibacterium acnes; conditions: after benzoyl peroxide treatment, FIG. 39
Method: A group of subjects with P. acnes populations were treated with benzoyl peroxide and divided into 3 cohorts based on the effectiveness of the treatment. Subjects in the “Decrease Cohort” experienced a decrease in P. acnes populations, subjects in the “Increase Cohort” experienced an increase in P. acnes populations, and the “Flat Cohort” experienced non-measureable variance in P. acnes populations. […] Shown is the mean proportion of P. acnes across “Increase”, “Decrease”, and “Flat” cohort. […] The Al P. acnes across is differentiated between “Increase” and “Decrease” cohort. […] The K4 & C3 P. acnes is differentiated between “Increase” and “Decrease” cohort. […] The F4 & D1 P. acnes is differentiated between “Increase” and “Decrease” cohort. […] […] The K4 and A2 P. acnes strains are more prevalent in “Decrease” cohort while the K1 strain is more prevalent in “Increase” cohort.

O=C(OOC(=O)c1ccccc1)c1ccccc1 [benzoyl peroxide]
P. acnes levels within the microbiome [1]: decreased | S. mitis relative proportion in the microbiome [2]: increased | Skin site impacted the most by benzoyl peroxide ([3]; among all sites tested, from the site specific prediction models of Table 2): cheek gets impacted the most | Impact on overall microbiome diversity ([3]; benzoyl peroxide treatment): does not impact the overall microbiome diversity | Prevalence of the C2 P. acnes strain after treatment [4]: becomes more prevalent
